Where two headings read alike, the source gives them in different places.
What was measured:
CCK receptor (pancreas) = molecular target: T1, CCK receptor (pancreas) (Rattus norvegicus, UniProt P30551); assay: biochemical; format: binding; conditions: rat pancreas membranes; for IC50: 50 pM 125I-CCK-8, 25°C 2 hours
T1 construct: The whole pancreas was dissected free of fat tissue and was homogenized; from tissue; host or cells: rat pancreas membrane homogenate
T1 sequence (P30551 1-444): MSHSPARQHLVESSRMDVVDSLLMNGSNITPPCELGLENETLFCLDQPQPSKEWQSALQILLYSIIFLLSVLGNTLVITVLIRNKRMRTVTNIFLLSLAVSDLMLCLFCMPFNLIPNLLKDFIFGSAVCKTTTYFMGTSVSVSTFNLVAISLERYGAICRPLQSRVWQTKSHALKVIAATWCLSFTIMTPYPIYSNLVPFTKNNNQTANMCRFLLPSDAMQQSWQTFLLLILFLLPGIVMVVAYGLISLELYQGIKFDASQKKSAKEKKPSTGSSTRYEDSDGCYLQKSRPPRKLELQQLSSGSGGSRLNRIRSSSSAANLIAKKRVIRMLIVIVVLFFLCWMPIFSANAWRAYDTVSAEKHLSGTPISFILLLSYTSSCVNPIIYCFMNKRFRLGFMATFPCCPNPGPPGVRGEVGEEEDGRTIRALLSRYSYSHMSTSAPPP
Procedure: CCK-8 sulphated was radiolabelled with ¹²⁵I-Bolton Hunter reagent (2000 Ci/mmole). Receptor binding was performed according to Chang and Lotti (Proc. Natl. Acad. Sci. 83, 4923-4926, 1986) with minor modifications.
Male Sprague-Dawley rats (150-200g) were sacrificed by decapitation. The whole pancreas was dissected free of fat tissue and was homogenized in 25 volumes of ice-cold 10 mM N-2-hydroxyethyl-piperazine-N′-2-ethane sulphonic acid (HEPES) buffer with 0.1% soya bean trypsin inhibitor (pH 7.4 at 25°C) with a Kinematica Polytron. The homogenates were centrifuged at 47,800 g for 10 min. Pellets were resuspended in 10 volumes of binding assay buffer (20mM (HEPES)), 1mM ethylene glycol-bis-(β-aminoethylether-N,N′-tetraacetic acid) (EGTA), 5mM MgCl₂, 150 mM NaCl, bacitracin 0.25 mg/ml, soya bean trypsin inhibitor 0.1 mg/ml, and bovine serum albumin 2 mg/ml pH 6.5 at 25°C) using a Teflon (trademark) homogenizer, 15 strokes at 500 rpm. The homogenate was further diluted in binding assay buffer to give a final concentration of 0.5 mg original wet weight/1 ml buffer. […] All assays were run in duplicate. The reaction mixtures were incubated at 25°C for 2 hours and the reaction terminated by rapid filtration (Brandell 24 well cell harvester) over Whatman GF/C filters, washing 3 x 4 mls with ice-cold 100 Mm NaCl. The radioactivity on the filters was counted with a LKB gamma counter.
(§1) Drug displacement studies were performed with at least 10 concentrations of compounds of Formula I and the IC₅₀ values were determined by regression analysis IC₅₀ refers to the concentration of the compound required to inhibit 50% of specific binding of ¹²⁵I-CCK-8.

[1] = molecular target: T2, CCK receptor (brain, cortex) (Cavia porcellus, UniProt H0VZC5); assay: biochemical; format: binding, guinea pig
T2 construct: the cortex was removed and homogenized in 25 mL ice-cold 0.32 M sucrose; from tissue; host or cells: guinea pig brain cortex P2 membrane pellet
T2 sequence (H0VZC5 1-426): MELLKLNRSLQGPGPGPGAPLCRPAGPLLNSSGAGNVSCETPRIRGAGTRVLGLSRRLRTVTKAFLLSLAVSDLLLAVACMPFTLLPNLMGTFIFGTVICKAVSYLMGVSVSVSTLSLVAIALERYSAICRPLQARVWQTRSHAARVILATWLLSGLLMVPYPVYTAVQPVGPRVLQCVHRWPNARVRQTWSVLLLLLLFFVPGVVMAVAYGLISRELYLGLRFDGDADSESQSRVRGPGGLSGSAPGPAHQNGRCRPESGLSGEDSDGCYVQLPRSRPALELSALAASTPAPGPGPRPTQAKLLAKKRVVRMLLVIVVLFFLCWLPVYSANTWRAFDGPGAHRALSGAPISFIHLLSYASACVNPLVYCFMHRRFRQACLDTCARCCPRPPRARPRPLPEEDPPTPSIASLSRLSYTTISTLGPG
Procedure: CCK-8 sulphated was radiolabelled and the binding was performed according to the description for the pancreas method with minor modifications.
Male Hartley guinea pigs (300-500g) were sacrificed by decapitation and the cortex was removed and homogenized in 25 mL ice-cold 0.32 M sucrose. The homogenates were centrifuged at 1000 g for 10 minutes and the resulting supernatant was recentrifuged at 20,000 g for 20 minutes. The P₂ pellet was resuspended in binding assay buffer (20mM HEPES, 5 mM MgCl₂, 0.25 mg/ml bacitracin, 1 mM EGTA pH 6.5 at 25°C), using a Teflon (trademark) homogenizer (5 strokes at 500 rpm) to give a final concentration of 10 mg original wet weight/1.2 ml buffer. […] All assays were run in duplicate. The reaction mixtures were incubated at 25°C for 2 hours and then the reaction was terminated by rapid filtration (Brandell 24 well cell harvester) on Whatman GF/C filters with 3 x 5 ml washes of cold 100 mM NaCl. The radioactivity on the filters was counted with a LKB gamma counter.
as §1

[2] = guinea pig cortex membranes, 50 pM 125I-CCK-8, 25°C 2 hours, read-out: IC50 ^125I-CCK Brain

With CC(C)CN1C(=O)C(NC(=O)Nc2cccc(-c3nn[nH]n3)c2)N=C(C2CCCCC2)c2ccccc21 (racemic) [Example 2, N-[3(R,S)-5-Cyclohexyl-2,3-dihydro-1-(2-methylpropyl)-2-oxo-1H-1,4-benzodiazepin-3-yl] N′-[3-tetrazol-5-ylphenyl] urea] the inhibition at 3 µM (CCK receptor (pancreas); at 3μM, read-out: inhibition of ^125I-CCK binding, Pancreas) was ~27% and the IC50 [1, 2] was 0.42 nM.

CC(C)CN1C(=O)C(NC(=O)Nc2cccc(-c3nn[nH]n3)c2)N=C(C2CCCC2)c2ccccc21 (racemic) [Example 3, N-[3(R,S)-5-Cyclopentyl-2,3-dihydro-1-(2-methylpropyl)-2-oxo-1H-1,4-benzodiazepin-3-yl] N′-[3-tetrazol-5-ylphenyl]urea] gave an IC50 (CCK receptor (pancreas)) of 800 nM and an IC50 [1, 2] of 0.3 nM.

CCN1C(=O)C(NC(=O)Nc2cccc(-c3nn[nH]n3)c2)N=C(C2CCCC2)c2ccccc21 (racemic) [Example 5, N-[3(R,S)-5-Cyclopentyl-2,3-dihydro-1-ethyl-2-oxo-1H-1,4-benzodiazepin-3-yl] N′-[3-tetrazol-5-ylphenyl]urea] was tested, and the IC50 (CCK receptor (pancreas)) was 140 nM and the IC50 [1, 2] was 0.71 nM.

For CCCN1C(=O)C(NC(=O)Nc2cccc(-c3nn[nH]n3)c2)N=C(C2CCCC2)c2ccccc21 (racemic) [Example 6, N-[3(R,S)-5-Cyclopentyl-2,3-dihydro-1-propyl-2-oxo-1H-1,4-benzodiazepin-3-,yl] N′-[3-tetrazol-5-ylphenyl] urea], the IC50 (CCK receptor (pancreas)) was 1100 nM and the IC50 [1, 2] was 0.96 nM.

Work on CN1C(=O)C(NC(=O)Nc2cccc(-c3nn[nH]n3)c2)N=C(C2CCCC2)c2ccccc21 (racemic) [Example 8, N-[3(R,S)-5-Cyclopentyl-2,3-dihydro-1-methyl-2-oxo-1H-1,4-benzodiazepin-3-yl] N′-[3-tetrazol-5-ylphenyl] urea] yielded an IC50 (CCK receptor (pancreas)) of 56 nM and an IC50 [1, 2] of 1.6 nM.

For CN1C(=O)C(NC(=O)Nc2cccc(C(=O)O)c2)N=C(C2CCCCC2)c2ccccc21 (racemic) [Example 10, N-[3(R,S)-5-Cyclohexyl-2,3-dihydro-1-methyl-2-oxo-1H-1,4-benzodiazepin-3-yl] N′-[3-carboxyphenyl] urea], the IC50 (CCK receptor (pancreas)) was 3.1 nM and the IC50 [1] was 1.4 nM.

CC(C)C(=O)NS(=O)(=O)c1cccc(NC(=O)NC2N=C(C3CCCCC3)c3ccccc3N(C)C2=O)c1 (racemic) [Example 11, N-[3(R,S)-5-Cyclohexyl-2,3-dihydro-1-methyl-2-oxo-1H-1,4-benzodiazepin-3-yl] N′-(3-(isopropylcarbonylaminosulphonyl)phenyl] urea] gave an IC50 (CCK receptor (pancreas)) of 118 nM and an IC50 [1, 2] of 0.32 nM.

CN1C(=O)C(NC(=O)Nc2cccc(S(=O)(=O)NC(=O)c3ccccc3)c2)N=C(C2CCCCC2)c2ccccc21 (racemic) [Example 13, N-(3(R,S)-5-Cyclohexyl-2,3-dihydro-1-methyl-2-oxo-1H-1,4-benzodiazepin-3-yl] N′-[3-(phenylcarbonylaminosulphonyl)phenyl] urea] showed an IC50 (CCK receptor (pancreas)) of 738 nM.

For CN1C(=O)C(NC(=O)Nc2cccc(C(=O)NS(=O)(=O)c3ccccc3)c2)N=C(C2CCCCC2)c2ccccc21 (racemic) [Example 14, N-[3(R,S)-5-Cyclohexyl-2,3-dihydro-1-methyl-2-oxo-1H-1,4-benzodiazepin-3-yl] N′-[3-(phenylsulphonylaminocarbonyl)phenyl] urea], the IC50 (CCK receptor (pancreas)) was 11.1 nM and the IC50 [1, 2] was 0.58 nM.

CN1C(=O)C(NC(=O)Nc2cccc(C(=O)NS(C)(=O)=O)c2)N=C(C2CCCCC2)c2ccccc21 (racemic) [Example 16, N-(3(R,S)-5-Cyclohexyl-2,3-dihydro-1-methyl-2-oxo-1H-1,4-benzodiazepin-3-yl] N′-[3-(methylsulphonylaminocarbonyl)phenyl] urea] showed an IC50 (CCK receptor (pancreas)) of 2 nM.

For CN1C(=O)C(NC(=O)Nc2cccc(C(=O)NS(=O)(=O)C(F)(F)F)c2)N=C(C2CCCCC2)c2ccccc21 (racemic) [Example 18, N-[3(R,S)-5-Cyclohexyl-2,3-dihydro-1-methyl-2-oxo-1H-1,4-benzodiazepin-3-,yl] N′-[3-(trifluoromethylsulphonylaminocarbonyl)phenyl] urea], the IC50 (CCK receptor (pancreas)) was 13.8 nM and the IC50 [1, 2] was 0.09 nM.

CC(C)CN1C(=O)C(NC(=O)Nc2cccc(C(=O)NS(C)(=O)=O)c2)N=C(C2CCCCC2)c2ccccc21 (racemic) [Example 19, N-(3(R,S)-5-Cyclohexyl-2,3-dihydro-1-(2-methylpropyl)-2-oxo-1H-1,4-benzodiazepin-3-yl] N′-[3-(methylsulphonylaminocarbonyl)phenyl] urea] showed an IC50 (CCK receptor (pancreas)) of 570 nM and an IC50 [1, 2] of 12 nM.

CN1C(=O)C(NC(=O)Nc2cccc(S(=O)(=O)Nc3nncs3)c2)N=C(C2CCCCC2)c2ccccc21 (racemic) [Example 21, N-[3(R,S)-5-Cyclohexyl-2,3-dihydro-1-methyl-2-oxo-1H-1,4-benzodiazepin-3-yl] N′-[3-(1,3,4-thiadiazol-2-ylaminosulphonyl)phenyl]urea] gave an IC50 (CCK receptor (pancreas)) of 9.7 nM and an IC50 [1, 2] of 1.2 nM.

Work on CCS(=O)(=O)NC(=O)c1cccc(NC(=O)NC2N=C(C3CCCCC3)c3ccccc3N(C)C2=O)c1 (racemic) [Example 23, N-[3(R,S)-5-Cyclohexyl-2,3-dihydro-1-methyl-2-oxo-1H-1,4-benzodiazepin-3-yl] N′-[3-(ethylsulphonylaminocarbonyl)phenyl]urea] yielded an IC50 (CCK receptor (pancreas)) of 5 nM and an IC50 [1, 2] of 0.96 nM.

Compound CCCN1C(=O)C(NC(=O)Nc2cccc(C(=O)NS(C)(=O)=O)c2)N=C(C2CCCCC2)c2ccccc21 (racemic) [Example 25, N-[3(R,S)-5-Cyclohexyl-2,3-dihydro-1-propyl-2-oxo-1H-1,4-benzodiazepin-3-yl] N′-(3-(methylsulphonylaminocarbonyl)phenyl]urea] has an IC50 (CCK receptor (pancreas)) of 220 nM and an IC50 [1, 2] of 1.9 nM.

CN1C(=O)C(NC(=O)Nc2cccc(C(=O)NS(=O)(=O)c3ccccc3)c2)N=C(C2CCCC2)c2ccccc21 (racemic) [Example 40, N-[3(R,S)-5-Cyclopentyl-2,3-dihydro-1-methyl-2-oxo-1H-1,4-benzodiazepin-3-yl] N′-[3-(phenylsulphonylaminocarbonyl)phenyl] urea] showed an IC50 (CCK receptor (pancreas)) of 310 nM.

In the case of Cc1cccc(NC(=O)NC2N=C(C3CCCCC3)c3ccccc3N(C)C2=O)c1 (single isomer, unassigned) [7 (Peak B)], the IC50 [1, 2] is reported as 100 nM.

CC(C)S(=O)(=O)NC(=O)c1cccc(NC(=O)NC2N=C(C3CCCCC3)c3ccccc3N(C)C2=O)c1 (single isomer, unassigned) [24 (Peak B)] showed an IC50 (CCK receptor (pancreas)) of 5 nM.

Cc1ccccc1S(=O)(=O)NC(=O)c1cccc(NC(=O)N[C@@H]2N=C(C3CCCCC3)c3ccccc3N(C)C2=O)c1 [Example 33, N-[3(R)-5-Cyclohexyl-2,3-dihydro-1-methyl-2-oxo-1H-1,4-benzodiazepin-3-yl] N′-[3-(2-methylphenylsulphonylaminocarbonyl)phenyl] urea] was tested, and the IC50 (CCK receptor (pancreas)) was 1600 nM.

— patent EP0514133A1, “Benzodiazepine derivatives, compositions containing them and their use in therapy” (priority 1991, dated 1992)
